Usually AC50 stands for the midpoint of the concentration-response curve, whichever way the signal moves. For orientation: IC50 means the point on the concentration scale where inhibition reaches its midpoint.

AC50 and IC50 data for 8 compounds are collected here from ChEMBL document CHEMBL1201862, “PubChem BioAssay data set” (2004).

Active and inactive are the calls of the source.

A short description of test [1]: activation of miR-122 Renilla sensor silencing – cell-based, Huh7 psiCHECK-miR122, Renilla luciferase, cherry-picked, dose response (AID 651956).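 Also: huh7 hepatoma cells stably carrying a psiCHECK-2 miR-122 sensor plasmid; renilla luciferase signal reporting endogenous miR-122 activity after 48 h compound exposure.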 The format is functional.
The nature of test [2]: COV434 cell viability loss – plate reader, dry powder, SA7, cytotoxicity control for PAX8 inhibitor project, dose response (AID 743145). The format is functional, cell-based.
The target of another test is Paired box protein Pax-8 (Homo sapiens, UniProt Q06710). Briefly: PAX8 transcriptional activity inhibition in RMG-I – RMG-I cells, luciferase, cherry-pick, dose response (AID 687027).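 Also: luciferase reporter driven by Pax8 target thyroperoxidase promoter measured by SteadyGlo luminescence.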 The test is classed as functional, cell-based.
Test [3] can be described thus: COV362 cell viability loss – plate reader, dry powder, SA12, cytotoxicity control for PAX8 inhibitor project, dose response (AID 743144). The test is classed as functional, cell-based.
A short description of test [4]: OVCAR4 cell viability loss – plate reader, dry powder, SA11, cytotoxicity control for PAX8 inhibitor project, dose response (AID 743150). The format is functional, cell-based. To be noted: OVCAR-4.
A short description of test [5]: PAX8-dependent cell viability loss – plate reader, dry powder, dose response (AID 743049). The format is functional, cell-based.
Test [6] is described as follows: reduced cellular PGC1a acetyl-lysine signal – cell-based, cherry-picked samples, dose response (AID 720514).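 Also: potency may reflect raised or lowered acetylation signal.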 The format is functional.
Test [7] can be described thus: IGROV1 cell killing – plate reader, dry powder samples, PAX8 inhibitor project, dose response (AID 743043). The test is classed as functional, cell-based. The following applies: IGROV-1.
Test [8] is described as follows: OV-90 cell viability loss – plate reader, dry powder, SA8, PAX8 inhibitor project, dose response (AID 743149). The format is functional, cell-based.
Test [9] can be described thus: OVCAR-3 cell viability loss – plate reader, dry powder samples, PAX8 inhibitor project, dose response (AID 743044). The format is functional, cell-based.
A short description of test [10]: toxicity toward immortalized ovarian surface epithelium – cell-based, plate reader, dry powder samples, cytotoxicity control for PAX8 inhibitor project, dose response (AID 743045). The test is classed as functional.
Test [11] can be described thus: OVCAR8 cell viability loss – plate reader, dry powder samples, PAX8 project, dose response (AID 743197). The following applies: OVCAR-8. The test is classed as functional, cell-based.
The nature of test [12]: A2780 cell killing – plate reader, dry powder samples, cytotoxicity control, dose response (AID 743046). The format is functional, cell-based.
Test [13] concerns the target T1, High affinity choline transporter 1 (Homo sapiens, UniProt Q9GZV3).
T1 sequence (Q9GZV3 whole entry): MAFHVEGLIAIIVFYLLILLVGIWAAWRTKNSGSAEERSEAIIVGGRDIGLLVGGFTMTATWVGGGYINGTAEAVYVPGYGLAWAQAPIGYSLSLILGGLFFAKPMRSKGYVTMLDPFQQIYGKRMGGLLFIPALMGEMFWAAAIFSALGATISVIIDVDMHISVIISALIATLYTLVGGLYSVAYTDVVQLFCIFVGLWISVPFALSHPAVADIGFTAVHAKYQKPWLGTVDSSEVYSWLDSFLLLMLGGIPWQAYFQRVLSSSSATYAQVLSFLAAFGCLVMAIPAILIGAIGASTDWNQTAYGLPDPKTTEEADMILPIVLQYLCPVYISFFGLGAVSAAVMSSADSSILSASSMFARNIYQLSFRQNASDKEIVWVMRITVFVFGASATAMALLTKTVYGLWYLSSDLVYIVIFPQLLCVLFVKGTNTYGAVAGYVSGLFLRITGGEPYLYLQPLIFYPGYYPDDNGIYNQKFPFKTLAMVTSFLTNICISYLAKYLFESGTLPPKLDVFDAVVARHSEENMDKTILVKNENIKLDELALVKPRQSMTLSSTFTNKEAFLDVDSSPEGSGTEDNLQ
In words: inhibition of SLC5A7-mediated choline transport – cell-based, HEK-293 hCHT, [3H]-choline uptake, dose response (AID 652177). The format is functional.

Test [14] is described as follows: Late stage assay provider results from the probe development effort to identify inhibitors of the Plasmodium falciparum M17 Leucine Aminopeptidase (M17LAP): radiolabel-based cell-based dose response assay to identify compounds that inhibit P. falciparum growth in RBCs Set 2. The test is classed as functional.
The nature of test [15]: A Cell-Based Confirmatory Screen for Compounds that Inhibit VEEV, TC-83 (7). The format is functional.
A short description of test [16]: MITF: Counter assay: A375 proliferation Measured in Cell-Based System Using Plate Reader - 2084-03_Inhibitor_Dose_DryPowder_Activity_Set8. The test is classed as functional. The following applies: A-375.
Test [17] in a line: MITF Orthogonal Assay: SK-MEL-5 CTG Assay Measured in Cell-Based System Using Plate Reader - 2084-02_Inhibitor_Dose_DryPowder_Activity_Set7. The format is functional.
A short description of test [18]: inhibitors of TRPM1-promoter reporter in SK-MEL-5 – cell-based, luciferase, dry powder, set 8, MITF inhibitor project, dose response (AID 624430). The test is classed as functional.
Test [19] can be described thus: Late stage assay provider results from the probe development effort to identify inhibitors of the Plasmodium falciparum M18 Aspartyl Aminopeptidase (M18AAP): radiolabel-based cell-based dose response assay to identify compounds that inhibit P. falciparum growth in RBCs, Set 2.. The test is classed as functional.
Test [20] in a line: CTGF mRNA reduction in DLD1 cells – cell-based, DLD1 colon cancer, RT-qPCR, cherry-pick, dose response (AID 1053122). The following applies: Cancer cell lines. The test is classed as functional.

Chain of Paired box protein Pax-8 (Q06710 whole entry): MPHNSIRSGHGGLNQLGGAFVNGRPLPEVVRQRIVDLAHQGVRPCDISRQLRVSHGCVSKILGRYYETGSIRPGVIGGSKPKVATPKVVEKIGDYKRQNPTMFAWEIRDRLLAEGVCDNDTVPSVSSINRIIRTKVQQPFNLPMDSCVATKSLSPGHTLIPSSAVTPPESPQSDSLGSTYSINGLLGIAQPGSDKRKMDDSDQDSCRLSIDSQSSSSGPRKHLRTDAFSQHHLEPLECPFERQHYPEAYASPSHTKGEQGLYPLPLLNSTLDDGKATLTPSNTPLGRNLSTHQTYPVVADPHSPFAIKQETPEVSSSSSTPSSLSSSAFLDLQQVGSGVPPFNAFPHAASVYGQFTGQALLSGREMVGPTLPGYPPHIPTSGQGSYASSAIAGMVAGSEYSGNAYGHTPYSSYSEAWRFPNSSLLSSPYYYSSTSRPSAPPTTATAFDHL

On to `CN(C[C@H]1N[C@@H](CO)[C@@H]1c1ccc(C2=CCCC2)cc1)C(=O)c1ccc(F)cc1`, for which the AC50 was 13 µM (active) in test [1]; 5.17 µM (active) in test [2]; 0.895 µM (active) at Paired box protein Pax-8; 3.27 µM (active) in [3]; 1.57 µM (active) in test [4]; 2.21 µM (active) in [5]. Besides, the AC50 is 0.25 µM (active) in [6]; 4.15 µM (active) in test [7]; 9.17 µM (active) in test [8]; 5.63 µM (active) in [9]; 3.25 µM (active) in test [10]; 4.04 µM (active) in [11].
For `C[C@@H]1CCCCO[C@@H](CN(C)Cc2ccc(Cl)c(Cl)c2)[C@H](C)CN([C@@H](C)CO)C(=O)c2cc(NC(=O)Nc3ccccc3)ccc2O1`, the results for the AC50 (at Paired box protein Pax-8; in test [12]) were 11.6 µM (active) and 3.09 µM (active), respectively.
For the compound `COc1ccc(C(=O)NCc2cc(C(C)C)no2)cc1OCCN1CCCCC1`, the IC50 in test [13] is 0.76 µM (active).
Turning to `CCCOc1ccc(CC(=O)NO)cc1`, the IC50 in test [14] was 8.6 µM (active).
In the case of `CN(c1ccc(OCc2ccccc2)cc1)c1nc(=O)c2cccnc2s1`, the IC50 in test [15] was 2.33 µM (active).
Consider `CCN1CCN(C2=C(Nc3ccc(Cl)c(Cl)c3)C(=O)c3ccccc3C2=O)CC1`, for which the AC50 in test [16] is 21.1 µM (active); in test [17], 9.55 µM (active); in test [18], 10.8 µM (active).
`COc1ccc(CCCNc2c3ccccc3nc3ccccc23)cc1OC`: the IC50 in [19] was 2.2 µM (active).
For `C[C@H]1CN([C@@H](C)CO)C(=O)c2cccc(NC(=O)c3nc4ccccc4s3)c2O[C@@H]1CN(C)C(=O)Nc1ccc2c(c1)OCO2`, the half-maximal activity concentration (AC50) in test [20] is 1.82 µM (active).
